Tests used:
S. aureus 6538 [1] = assay: porcine infection prevention open-wound model; details: solution (10 mg/mL) applied prior to inoculation
Method: Full-thickness 1 cm diameter wounds were made in the dorsal and lateral thorax of a 25-35 kg Yorkshire-cross pig. K180L20 hydrogel (or control buffer) was applied, and after four hr, wounds were inoculated with S. aureus. Wounds were assessed after 48 hr for bacterial counts by standard microbiology methods.

[2] = critical aggregation concentration (CAC) via pyrene fluorescence; assay type: physicochemical; details: in water
Method: Polypeptide solutions (2 mL) were dispersed in water at a range of concentrations (2.0×10^−3 to 2.0×10^−12 M). A stock pyrene solution was made by dissolving pyrene in acetone (6.0×10^−2 M). Next, an appropriate amount of the pyrene stock solution was added to give a final concentration of 12×10^−7 M in water and the acetone was evaporated off. To each polypeptide solution, 2.0 mL of the aqueous stock pyrene solution was added to afford a final concentration of 6.0×10^−7 M. Then, each solution was allowed to equilibrate overnight prior to measurements. To record fluorescence spectra, 3.0 mL of each polypeptide solution was added to a 4.0 mL polystyrene covet. The excitation spectra were recorded within a range of 300-360 nm at an emission wavelength of 390 nm. All spectra were run with an integration time of 1 sec/0.5 nm. The ratio of the intensities of two peaks I338/I333 was plotted as a function of polypeptide concentration (M) for each sample. The CACs were determined as the intersection of the extrapolated linear fits of the plot.

[3] = test system: P. aeruginosa (Clinical Pig Isolate); assay: rodent model of prevention of wound infection (subcutaneous polypropylene mesh); details: solution
Method: (§2) In this model, a mesh pre-soaked with phosphate buffered saline (PBS) or K180L20 was inserted subcutaneously into the dorsal cervical region of Sprague-Dawley rats, followed by 10^6 S. aureus or P. aeruginosa. Additional PBS or K180L20 was added, wounds closed, and animals returned to cages for 48 hr.

S. aureus 6538 [4] = assay: as above; details: solution
Method: as §2

[5] = pig, in vivo
S. aureus = assay: in vitro antimicrobial activity, incubated with bacteria for 30 min prior to plating for growth; assay type: cell-based
Method: (§1) K180L20 was incubated with bacteria for 30 min prior to plating for growth;

S. epidermidis = assay: as above; assay type: cell-based; details: FIG. 4
Method: as §1

E. coli = assay: as above; assay type: cell-based
Method: as §1

P. aeruginosa = assay: as above; assay type: cell-based
Method: as §1

[6] = pig, in vivo; remark: listed apart in the source
[7] = inflammation by histology in rodent infection model; assay type: in vivo, rats; details: rodent open wounds, copolypeptide in solution, versus control treatments
microbes = assay: in vitro antimicrobial activity, organism not given; assay type: cell-based; details: neutral pH (~7)

| Substance | prevention of microbial infection, S. aureus (S. aureus 6538 [1]) | critical aggregation concentration (CAC) [2] | reduction in bacterial population, P. aeruginosa ([3]; 20 μg/ml of copolypeptide) | reduction in bacterial population, P. aeruginosa ([3]; 2 mg/ml) | reduction in bacterial population, S. aureus (S. aureus 6538 [4]; 20 μg/ml of copolypeptide) | reduction in bacterial population, S. aureus (S. aureus 6538 [4]; 2 mg/ml) | mononuclear inflammation, edema, or hemorrhage versus controls [5] | neutrophilic inflammation, severity versus controls [5] | serocellular exudates, severity versus controls [5] | reduction of bacteria, S. aureus (S. aureus; 10 μg/ml) | antimicrobial activity against S. aureus (S. aureus; FIG. 4) | antimicrobial activity against S. epidermidis (S. epidermidis) | reduction of bacteria, E. coli (E. coli; 10 μg/ml) | antimicrobial activity against E. coli (E. coli; FIG. 4) | reduction of bacteria, P. aeruginosa (P. aeruginosa; 10 μg/ml) | antimicrobial activity against P. aeruginosa (P. aeruginosa; FIG. 4) | inflammation, necrosis, and epithelial coverage versus control-treated wounds [6] | inflammation, histopathological evidence [7] | antimicrobial activity at neutral pH (microbes) |
| --- | --- | --- | --- | --- | --- | --- | --- | --- | --- | --- | --- | --- | --- | --- | --- | --- | --- | --- | --- |
| Poly(L-Lysine.HCl)55-b-poly(rac-Leucine)20 [K55(rac-L)20] | fully prevented microbial infection | 8.1 µM | 1-3 log | complete (or near complete) reduction | 1-3 log | complete (or near complete) reduction | No differences | minimally less severe | mildly | reduction of bacteria | substantial antimicrobial activity | substantial antimicrobial activity | reduction of bacteria | substantial antimicrobial activity | reduction of bacteria | substantial antimicrobial activity | similar | at or below the level of control treatments |  |
| Poly(L-glutamate-Na)54-b-poly(rac-leucine)20 [E54(rac-L)20] |  |  |  |  |  |  |  |  |  |  |  |  |  |  |  |  |  |  | low antimicrobial activity |

Reference: patent publication US9017730B2 (The Regents of the University of California, priority 2010, dated 2015)
